Results published in PubChem BioAssay AID1918942 (Molecular Pharmacology Branch, DTP, NCI, 2023).
Several values for one entry are separate records, joined by “and”; a condition that tells them apart may be missing. Equal values may be shown once.

Test system: 743489-274-T-PDC complex spheroid viability
Assay: Anticancer human tumor 743489-274-T-PDC patient-derived renal cell carcinoma cell line growth inhibition
Details: for viability, T/C: stronger effect = lower value
Text: Multicellular complex tumor spheroid response to LSD1 Inhibitor Iadademstat in combination with a variety of drugs and investigational agents in selected tumor cell lines
The current study was undertaken to assess response to LSD1 inhibitors in combination with standard-of-care drugs and investigational agents in solid tumor complex spheroid models as well as in the K-562 leukemia. Complex spheroids include a stromal component modeled by human endothelial cells (HUVEC) and fibroblasts modeled by human mesenchymal stem cells (MSCs). The concentration ranges selected for each drug and investigational agent were based upon clinically achievable concentrations if the clinical Cmax of the agent was known.
Compounds. The drugs and investigational agents used in this study are listed on Table 1. All of the agents used, including staurosporine (NSC755774) and gemcitabine (NSC613327), were obtained from the Developmental Therapeutics Program, NCI. FDA-approved anticancer drugs are available from the NCI at http://dtp.nci.nih.gov/branches/dscb/oncology_drugset_explanation.html. Drugs and investigational agents were >95% pure by proton nuclear magnetic resonance (NMR) and liquid chromatography/mass spectrometry (LC/MS). Stock solutions were prepared at 400x in DMSO, stored at -70 degrees C, and diluted in fresh medium prior to their use. The final concentration of DMSO in cell culture wells never exceeded 0.25% (v/v). The FDA-approved anticancer drug set is available from the Developmental Therapeutics Program at https://dtp.cancer.gov/organization/dscb/obtaining/available_plates.htm. All drugs and investigational agents were tested over a range starting from a high concentration at or near the clinical Cmax and decreasing in half-log increments. If the clinical Cmax for an agent had not been determined, the highest concentration tested was 10 microM.
Cell Lines. The patient-derived cancer cell (PDC) lines: 292921-168-R-J2-PDC, K24384-001-R-PDC, and 521955-158-R2-J5-PDC pancreatic carcinomas, 556581-035-R-J1 ovarian carcinoma, 324938-238-R-J1-PDC, 855422-203-R-J1-PDC and 883617-216-R-J1-PDC urothelial bladder carcinomas, 743489-274-T-PDC renal cell carcinoma, 138582-R-J1 Merkel cell tumor, K60290-347-R-J1 and K57222-313-R-J1-PDC glioblastomas, 653999-131-R-J2-PDC, LG0703-F948-PDC, and 349418-098-R-PDC non-small cell lung carcinomas, 885512-296-R-J2-PDC, 171881-019-R-J1-PDC breast carcinomas and 186277-243-T-J2-PDC and 233499-124-R-J2-PDC colon carcinomas were obtained from the NCI Patient-Derived Models Repository (PDMR, https://pdmr.cancer.gov). The established cell lines NCI/ADR-RES (RRID:CVCL_14520 and OVCAR-5 (RRID:CVCL_1628) ovarian carcinomas, 786-O (RRID:CVCL_1051) and A498 (RRID:CVCL_A498) renal cell carcinoma, NCI-H211 (ATCC, cat. CRL-5824; RRID:CVCL_1529), NCI-H196 (ATCC, cat. CRL-5823, RRID:CVCL_1509), SW 1271 (ATCC, cat. CRL-2177, RRID:CVCL_1716) and NCI-H1876 (ATCC, cat. CRL-5902, RRID:CVCL_1503) small cell lung carcinomas, MDA-MB-231 (RRID:CVCL_0062) and MDA-MB-468 (RRID:CVCL_0419)breast carcinomas (10-12). Pooled donor human umbilical vein endothelial cells (HUVEC, Lonza, cat. CC-2519) and human mesenchymal stem cells (hMSC, Lonza, cat. PT-2501) were purchased from Lonza (Walkersville, MD).
Cell Culture. All cells were maintained in an incubator at 37 degrees C and 5% CO2 with 95% humidity. The PDC lines were cultured according to standard operating procedures established by the NCI PDMR (https://pdmr.cancer.gov). Briefly all PDCs were thawed and cultured in Matrigel-coated flasks prepared with a working solution of 1X Ham's F-12 nutrient mix, without supplementation (Invitrogen, Waltham, MA, cat. 11765054), 100 U/mL penicillin-streptomycin (Invitrogen, cat. 15140122), and 2.5% Matrigel (Corning Inc., Corning, NY, cat. 354248) for the first three passages. […]

[1] = curve of first compound, second compound 0.1 µM
[2] = curve of first compound, second compound 0.316 µM
[3] = curve of first compound, second compound 1 µM
[4] = curve of first compound, second compound 3.16 µM
[5] = curve of first compound, second compound 10 µM
[6] = second compound 0.1 µM, first compound 0.0316 µM
[7] = second compound 0.1 µM, first compound 0.1 µM
[8] = second compound 0.1 µM, first compound 0.316 µM
[9] = second compound 0.1 µM, first compound 1 µM
[10] = second compound 0.316 µM, first compound 0.0316 µM
[11] = second compound 0.316 µM, first compound 0.1 µM
[12] = second compound 0.316 µM, first compound 0.316 µM
[13] = second compound 0.316 µM, first compound 1 µM
[14] = second compound 1 µM, first compound 0.0316 µM
[15] = second compound 1 µM, first compound 0.1 µM
[16] = second compound 1 µM, first compound 0.316 µM
[17] = second compound 1 µM, first compound 1 µM
[18] = second compound 3.16 µM, first compound 0.0316 µM
[19] = second compound 3.16 µM, first compound 0.1 µM
[20] = second compound 3.16 µM, first compound 0.316 µM
[21] = second compound 3.16 µM, first compound 1 µM
[22] = second compound 10 µM, first compound 0.0316 µM
[23] = second compound 10 µM, first compound 0.1 µM
[24] = second compound 10 µM, first compound 0.316 µM
[25] = second compound 10 µM, first compound 1 µM
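Further: spheroids exposed to compounds for 7 days before readout.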
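Wherever viability, T/C is given: 100% = DMSO vehicle control wells.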

`O=C(C=Cn1cnc(-c2cc(C(F)(F)F)cc(C(F)(F)F)c2)n1)NNc1cnccn1` was tested, and the viability, T/C (compound 0.00316 µM) was 106% and 109%, the viability, T/C (compound 0.01 µM) was 108% and 91% and the viability, T/C (compound 0.0316 µM) was 121% and 117%. For the same compound, the viability, T/C (compound 0.1 µM) was 115% and 97.5%, the viability, T/C (compound 0.316 µM) was 94.2% and 86.3% and the viability, T/C (compound 1 µM) was 81.2% and 73.2%. For the same compound, the IC50 (curve of compound) was greater than 1000 nM.
`O=C(C=Cn1cnc(-c2cc(C(F)(F)F)cc(C(F)(F)F)c2)n1)NNc1cnccn1` + NC1CC1c1ccc(-c2cccc(O)c2)cc1 gave an IC50 [1] greater than 1000 nM, an IC50 [2] greater than 1000 nM and an IC50 [3] greater than 1000 nM. It also gave an IC50 [4] greater than 1000 nM, an IC50 [5] greater than 1000 nM and a viability, T/C (second compound 0.1 µM, first compound 0.00316 µM) of 97.6%. It also gave a viability, T/C (second compound 0.1 µM, first compound 0.01 µM) of 103%, a viability, T/C [6] of 113% and a viability, T/C [7] of 85.8%. It also gave a viability, T/C [8] of 97.9%, a viability, T/C [9] of 86.2% and a viability, T/C (second compound 0.316 µM, first compound 0.00316 µM) of 102%. It also gave a viability, T/C (second compound 0.316 µM, first compound 0.01 µM) of 99.8%, a viability, T/C [10] of 108% and a viability, T/C [11] of 99.6%. It also gave a viability, T/C [12] of 76.4%, a viability, T/C [13] of 74.6% and a viability, T/C (second compound 1 µM, first compound 0.00316 µM) of 99.1%. The viability, T/C (second compound 1 µM, first compound 0.01 µM) was 103%, the viability, T/C [14] was 118% and the viability, T/C [15] was 88%. The viability, T/C [16] was 89.4%, the viability, T/C [17] was 67.4% and the viability, T/C (second compound 3.16 µM, first compound 0.00316 µM) was 98.7%. It also gave a viability, T/C (second compound 3.16 µM, first compound 0.01 µM) of 105%, a viability, T/C [18] of 119% and a viability, T/C [19] of 91.3%. The viability, T/C [20] was 74.6%, the viability, T/C [21] was 69.5% and the viability, T/C (second compound 10 µM, first compound 0.00316 µM) was 96.2%. For the same compound, the viability, T/C (second compound 10 µM, first compound 0.01 µM) was 101%, the viability, T/C [22] was 102% and the viability, T/C [23] was 98.6%. For the same compound, the viability, T/C [24] was 86.1% and the viability, T/C [25] was 57.4%.
`CC1COCCN1c1cc(C2(S(C)(=N)=O)CC2)nc(-c2ccnc3[nH]ccc23)n1` (configuration not stated) + NC1CCC(NC2CC2c2ccccc2)CC1 gave an IC50 [1] greater than 10000 nM, an IC50 [2] greater than 10000 nM and an IC50 [3] greater than 10000 nM. The IC50 [4] was greater than 10000 nM, the IC50 [5] was greater than 10000 nM and the viability, T/C [6] was 108%. It also gave a viability, T/C [7] of 106%, a viability, T/C [8] of 108% and a viability, T/C [9] of 116%. The viability, T/C (second compound 0.1 µM, first compound 3.16 µM) was 93.7%, the viability, T/C (second compound 0.1 µM, first compound 10 µM) was 92.1% and the viability, T/C [10] was 99.6%. For the same compound, the viability, T/C [11] was 111%, the viability, T/C [12] was 107% and the viability, T/C [13] was 108%. For the same compound, the viability, T/C (second compound 0.316 µM, first compound 3.16 µM) was 112%, the viability, T/C (second compound 0.316 µM, first compound 10 µM) was 98.6% and the viability, T/C [14] was 103%. For the same compound, the viability, T/C [15] was 123%, the viability, T/C [16] was 115% and the viability, T/C [17] was 113%. The viability, T/C (second compound 1 µM, first compound 3.16 µM) was 99.8%, the viability, T/C (second compound 1 µM, first compound 10 µM) was 94.9% and the viability, T/C [18] was 112%. For the same compound, the viability, T/C [19] was 103%, the viability, T/C [20] was 107% and the viability, T/C [21] was 106%. For the same compound, the viability, T/C (second compound 3.16 µM, first compound 3.16 µM) was 98.5%, the viability, T/C (second compound 3.16 µM, first compound 10 µM) was 92.7% and the viability, T/C [22] was 112%. For the same compound, the viability, T/C [23] was 103%, the viability, T/C [24] was 111% and the viability, T/C [25] was 121%. The viability, T/C (second compound 10 µM, first compound 3.16 µM) was 106% and the viability, T/C (second compound 10 µM, first compound 10 µM) was 94.6%.
With `O=C(C=Cc1cccc(S(=O)(=O)Nc2ccccc2)c1)NO` + NC1CC1c1ccc(-c2cccc(O)c2)cc1 the IC50 [1] was 860 nM, the IC50 [2] was 1010 nM and the IC50 [3] was 1550 nM. For the same compound, the IC50 [4] was 915 nM, the IC50 [5] was 1380 nM and the viability, T/C (second compound 0.1 µM, first compound 0.00949 µM) was 107%. It also gave a viability, T/C (second compound 0.1 µM, first compound 0.03 µM) of 98.5%, a viability, T/C (second compound 0.1 µM, first compound 0.0949 µM) of 93% and a viability, T/C (second compound 0.1 µM, first compound 0.3 µM) of 67.8%. For the same compound, the viability, T/C (second compound 0.1 µM, first compound 0.949 µM) was 49.7%, the viability, T/C (second compound 0.1 µM, first compound 3 µM) was 28.5% and the viability, T/C (second compound 0.316 µM, first compound 0.00949 µM) was 102%. It also gave a viability, T/C (second compound 0.316 µM, first compound 0.03 µM) of 93.2%, a viability, T/C (second compound 0.316 µM, first compound 0.0949 µM) of 88% and a viability, T/C (second compound 0.316 µM, first compound 0.3 µM) of 64.9%. For the same compound, the viability, T/C (second compound 0.316 µM, first compound 0.949 µM) was 53.1%, the viability, T/C (second compound 0.316 µM, first compound 3 µM) was 34% and the viability, T/C (second compound 1 µM, first compound 0.00949 µM) was 98.7%. It also gave a viability, T/C (second compound 1 µM, first compound 0.03 µM) of 99.3%, a viability, T/C (second compound 1 µM, first compound 0.0949 µM) of 84.2% and a viability, T/C (second compound 1 µM, first compound 0.3 µM) of 84.1%. The viability, T/C (second compound 1 µM, first compound 0.949 µM) was 58.8%, the viability, T/C (second compound 1 µM, first compound 3 µM) was 35.9% and the viability, T/C (second compound 3.16 µM, first compound 0.00949 µM) was 98.5%. It also gave a viability, T/C (second compound 3.16 µM, first compound 0.03 µM) of 88.1%, a viability, T/C (second compound 3.16 µM, first compound 0.0949 µM) of 90.8% and a viability, T/C (second compound 3.16 µM, first compound 0.3 µM) of 69%. For the same compound, the viability, T/C (second compound 3.16 µM, first compound 0.949 µM) was 50.2%, the viability, T/C (second compound 3.16 µM, first compound 3 µM) was 24.1% and the viability, T/C (second compound 10 µM, first compound 0.00949 µM) was 98.9%. For the same compound, the viability, T/C (second compound 10 µM, first compound 0.03 µM) was 97%, the viability, T/C (second compound 10 µM, first compound 0.0949 µM) was 87.8% and the viability, T/C (second compound 10 µM, first compound 0.3 µM) was 81.4%. The viability, T/C (second compound 10 µM, first compound 0.949 µM) was 56.6% and the viability, T/C (second compound 10 µM, first compound 3 µM) was 33.9%.
